We go through one substance from patent US20190328857A1, “CALR AND JAK2 VACCINE COMPOSITIONS” (IO Biotech ApS, priority 2016, published 2019).

Format in all cases: cell-based, human
Assay [1] deals with autologous CALRmut cells. Kind of assay: Intracellular cytokine staining of CALRLong1-specific T cells stimulated with autologous target cells. The following applies: IFN-γ 300 U/ml for 24 h. On the procedure:
As target cells, we used autologous CD14^+ monocytes and B-cells (BCL). As described above, CD14^+ monocytes were isolated using the MACS CD14 MicroBead kit. An autologous B-cell line was generated using EBV transfection of donor BCL at the Health Protection Agency Culture Collections, Salisbury, UK.
Frozen T-cells were thawed one day prior to assaying, and in experiments examining CD107a expression, a CD107a-PE antibody was added to cells directly after addition of peptide or target cells. After one hour of stimulation, protein-transport inhibitor Brefeldin A (BD Biosciences, San Jose, Calif., USA) was added to the cells which were then stimulated for four h. Cells were stained with CD3-APC-H7, CD4-FITC, CD8-PerCP, IFN-γ-APC, TNF-α-BV421 and Fixable Viability Stain 510 (BD Biosciences, San Jose, Calif., USA), permeabilized and washed with Permeabilization Reagent/Diluent and fixation-permeabilization buffer (AH Diagnostics, Aarhus, Denmark). Cells were acquired with a FACS Canto II (BD Biosciences) and analyzed using FACSDiva software. All effector cell stimulations were run in triplicate wells if not otherwise specified.
Autologous CD14^+ monocytes were cultured with CellGro, GM-CSF (1000 U/ml) and IL-4 (250 U/mL) and transfected with either CALR siRNA or negative-control siRNA (Invitrogen) the next day, using electroporation parameters as described previously (Met et al., 2011). In brief, monocytes were washed twice, suspended in Opti-MEM medium (Invitrogen) and adjusted to a final cell density of 10^7 cells/ml. The cell suspension (200 μl) was preincubated for 5 min on ice and subsequently, together with 5 μl of CALR siRNA or 10 μl of negative control siRNA transferred to a 2-mm gap electroporation and pulsed using a BTX 830 square-wave electroporator (Harvard Apparatus, Holliston Mass., USA). Electroporation settings were adjusted to a single pulse, 250 V, 2 ms. […]
As target cells, we used CD14^+ monocytes with CALRmut allelic burden of 71% and autologous EBV-transformed immortalized B-cells with a CALRmut allelic burden of 0% determined by PCR analysis. […]

Assay [2] has as its system UKE-1 and THP-1 cells. Nature of the assay: ELISPOT of JAK201-specific T cells stimulated with cancer cell lines. The settings on record: 100 U/ml IFN-γ 2 days before assaying. From the text: (§1) Next, we examined the capacity of JAK201-specific T cells to recognize and kill cancer cells harboring the JAK2V617F mutation. UKE-1, SET-2 and THP-1 are acute myeloid leukemia cancer cell lines that are HLA-A2-positive. THP-1 cells are JAK2 wt, whereas UKE-1 cells are homozygous and SET-2 are heterozygous for the JAK2V617F mutation. We first examined JAK201-specific T-cells reaction towards the UKE-1 cancer cell line. […] IFN-γ is known to induce the immunoproteasome and to upregulate HLA class I on the cell surface overall enhancing the antigen presentation by the target cell.
Finally to confirm the recognition of cells expressing the JAK2V617F mutation, we transfected JAK2 wt THP-1 cells with mRNA encoding the JAK2V617F mutation using neural growth factor receptor (NGFR) encoding mRNA as control and used these cells as target cells in cytokine release and Granzyme B assays. […] More than 50% of patients with Philadelphia chromosomenegative chronic MPN harbor the JAK2V617F mutation. This acquired somatic mutation is found exclusively in myeloid malignancies, rendering it a cancer-specific antigen. JAK2V617F is consequently an attractive target for cancer immune therapy.

In assay [3] the test system is UKE-1, SET-2 and THP-1 cells. Kind of assay: Standard Cr^51 cytotoxicity assay with JAK201-specific T cells and cancer cell lines.
Description: as §1
Then we examined the importance of the intracellular expression of the JAK2V617F mutation for the recognition of target cells by JAK201-specific T cells. Thus to silence the JAK2V617F mutation, we transfected UKE-1 cells with JAK2V617F siRNA and used the transfected cells as target cells, and compared the recognition with mock transfected UKE-1 cells as previously described. Silencer siRNA duplex for targeted silencing of JAK2V617F with 3′-end overhang dT bases in the antisense strand (sense sequence 5′-[…]-3′ (SEQ ID NO: 21), antisense sequence 5′-[…]-3′ (SEQ ID NO: 22) for duplex 1; and sense sequence 5′-[…]-3′ (SEQ ID NO: 23), antisense sequence 5′-[…]-3′ (SEQ ID NO: 24) for duplex 2) were obtained from Invitrogen (Invitrogen, Paisley, UK). […]

As for “IFN-γ: cytokine used to pretreat target cells to enhance antigen presentation”, in assay [1], the “effect of target cell stimulation on T-cell activation, B-cells” value is listed as “no change in activation” and the “effect of target cell stimulation on T-cell activation, CALRmut monocytes” value is listed as “significantly enhanced”. Further, the “effect of pretreatment of UKE-1 cells on IFN-γ release from the T cells” value in assay [2] is listed as “even greater release”. The “lysis of SET-2 cells after stimulation” value in assay [3] (IFN-γ stimulation) is given as “likewise lysed”. For the same substance, the “effect of treatment of UKE-1 cells on lysis” value in assay [3] (IFN-γ treatment) was “augmented”.
